Patent publication US20240124465A1, “MOLECULES AND METHODS RELATED TO TREATMENT OF DISORDERS ASSOCIATED WITH JAK-2 SIGNALING DYSFUNCTION” (ST. JUDE CHILDREN'S RESEARCH HOSPITAL, priority 2020, published 2024)

Experiments:
Format in all cases: cell-based
[1] = biological target: T1, GSPT1 (Homo sapiens, UniProt P15170); assay: Western blot assay, GSPT1 neosubstrate degradation; conditions: MHHCALL4; 100 nM, 24 h; MHH-CALL-4 cells; vehicle control = 100%
T1 construct: endogenous in cells; host or cells: MHH-CALL-4
Procedure, shortened: (§1)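 MHH-CALL-4 lysates (RIPA + protease inhibitors, 15 min on ice); BCA-quantified; 10-20 μg/lane, 4%-12% Bis-Tris gel; immunoblot, infrared imaging. Readout: target/ACBT ratio, vehicle = 100%.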

[2] = biological target: T2, TYK2 (Homo sapiens, UniProt P29597); assay: Western blot assay, TYK2 protein degradation; conditions: MHH-CALL-4 cells, vehicle control = 100%
T2 construct: endogenous in cells; host or cells: MHH-CALL-4
Protocol: (§2) Western blot assay: MHH-CALL-4 Cells were washed twice with ice-cold PBS and lysed in RIPA lysis buffer (Sigma) freshly supplemented with Halt™ Protease Inhibitor Cocktail (ThermoFisher) for 15 minutes on ice. The cell pellet was removed by centrifugation at 13,000 g at 4° C. for 15 minutes. Protein concentration was measured by BCA assay (Thermo Fisher Scientific). Proteins were denatured in NuPAGE LDS 4× sample buffer supplemented with reducing agents (Invitrogen). Typically, 10-20 μg of total protein was loaded per lane on a 4%-12% NUPAGE Bis-Tris gradient gel (Invitrogen) and analyzed by standard immunoblotting and imaged using Li—COR Odyssey CLx (LI-COR Biotechnology, Lincoln, NE). To access the protein degradation, the signal of target protein was normalized by the signal of ACBT and the signal of vehicle control was set as 100%. Primary antibodies used were: JAK1 (Cell Signaling #3332S), JAK2 (#3230S), JAK3 (#8827S), TYK2 (#9312S), GSPT1 (#14980S), CRBN (#71810S), IKZF1 (Santa Cruz Biotechnology, SC-398265) and ACBT (Santa Cruz Biotechnology, SC-47778).

[3] = biological target: T3, JAK1 (Homo sapiens, UniProt P23458); assay: Western blot assay, JAK1 protein degradation; conditions: MHH-CALL-4 cells, vehicle control = 100%
T3 construct: endogenous in cells; host or cells: MHH-CALL-4
Procedure, shortened: as §1

[4] = biological target: T4, JAK3 (Homo sapiens, UniProt P52333); assay: Western blot assay, JAK3 protein degradation; conditions: MHHCALL4; 100 nM, 24 h; MHH-CALL-4 cells; vehicle control = 100%; read-out: Target Protein Degradation (% remaining at 100 nM, 24 h) JAK3
T4 construct: endogenous in cells; host or cells: MHH-CALL-4
T4 sequence (P52333 1-1124): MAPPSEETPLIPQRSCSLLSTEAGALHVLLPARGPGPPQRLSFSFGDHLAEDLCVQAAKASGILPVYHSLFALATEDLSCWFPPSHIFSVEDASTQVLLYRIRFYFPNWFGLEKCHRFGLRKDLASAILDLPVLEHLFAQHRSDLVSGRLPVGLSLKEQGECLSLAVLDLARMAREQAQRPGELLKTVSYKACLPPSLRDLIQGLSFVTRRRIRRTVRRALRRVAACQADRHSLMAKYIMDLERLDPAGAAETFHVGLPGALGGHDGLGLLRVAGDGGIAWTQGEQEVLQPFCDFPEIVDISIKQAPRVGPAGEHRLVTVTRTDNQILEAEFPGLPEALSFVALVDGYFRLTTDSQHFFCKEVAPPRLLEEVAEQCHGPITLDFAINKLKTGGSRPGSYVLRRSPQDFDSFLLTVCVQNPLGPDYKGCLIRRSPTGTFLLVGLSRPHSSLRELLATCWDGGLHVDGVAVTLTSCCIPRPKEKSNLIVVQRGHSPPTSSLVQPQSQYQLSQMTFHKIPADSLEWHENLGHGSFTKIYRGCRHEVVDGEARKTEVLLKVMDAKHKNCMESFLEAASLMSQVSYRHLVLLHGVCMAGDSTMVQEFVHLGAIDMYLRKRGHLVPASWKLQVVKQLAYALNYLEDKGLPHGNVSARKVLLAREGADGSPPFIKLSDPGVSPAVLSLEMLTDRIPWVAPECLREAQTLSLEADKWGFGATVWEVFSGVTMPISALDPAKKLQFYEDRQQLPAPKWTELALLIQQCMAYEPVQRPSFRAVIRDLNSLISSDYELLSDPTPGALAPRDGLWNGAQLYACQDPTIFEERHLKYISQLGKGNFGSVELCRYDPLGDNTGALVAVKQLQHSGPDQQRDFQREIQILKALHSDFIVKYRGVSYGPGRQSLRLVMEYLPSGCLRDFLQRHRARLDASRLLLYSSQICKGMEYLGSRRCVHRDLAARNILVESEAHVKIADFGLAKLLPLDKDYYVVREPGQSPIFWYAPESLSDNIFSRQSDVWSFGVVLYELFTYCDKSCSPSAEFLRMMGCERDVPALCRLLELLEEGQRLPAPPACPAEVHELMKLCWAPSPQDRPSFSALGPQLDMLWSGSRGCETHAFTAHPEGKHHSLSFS
Procedure, shortened: as §1

[5] = tested on: MHH-CALL-4 cells; assay: Cytotoxicity assay (resazurin, 72 hours); set-up: AUC: unit not given beside the values; conditions: for EC50: MHHCALL4, resazurin; for AUC: area under the dose-response curve
Procedure, shortened: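 Cells grown in RPMI1640 with 10% FBS, 2×10⁵ per well, were exposed to pin-transferred compounds in triplicate for 72 h at 37 °C, 5% CO2. Viability was read after 4 h resazurin incubation. Dose-response AUC was calculated per compound; selected data were fitted by non-linear regression.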

[6] = biological target: T5, IKZF1 (Homo sapiens, UniProt Q13422); assay: Western blot assay, IKZF1 neosubstrate degradation; conditions: MHH-CALL-4 cells, vehicle control = 100%
T5 construct: endogenous in cells; host or cells: MHH-CALL-4
Protocol: as §2

[7] = tested on: JAK2; assay: Western blot assay, JAK2 protein degradation; conditions: MHH-CALL-4 cells, vehicle control = 100%
Procedure, shortened: as §1

T2 sequence (P29597 whole entry): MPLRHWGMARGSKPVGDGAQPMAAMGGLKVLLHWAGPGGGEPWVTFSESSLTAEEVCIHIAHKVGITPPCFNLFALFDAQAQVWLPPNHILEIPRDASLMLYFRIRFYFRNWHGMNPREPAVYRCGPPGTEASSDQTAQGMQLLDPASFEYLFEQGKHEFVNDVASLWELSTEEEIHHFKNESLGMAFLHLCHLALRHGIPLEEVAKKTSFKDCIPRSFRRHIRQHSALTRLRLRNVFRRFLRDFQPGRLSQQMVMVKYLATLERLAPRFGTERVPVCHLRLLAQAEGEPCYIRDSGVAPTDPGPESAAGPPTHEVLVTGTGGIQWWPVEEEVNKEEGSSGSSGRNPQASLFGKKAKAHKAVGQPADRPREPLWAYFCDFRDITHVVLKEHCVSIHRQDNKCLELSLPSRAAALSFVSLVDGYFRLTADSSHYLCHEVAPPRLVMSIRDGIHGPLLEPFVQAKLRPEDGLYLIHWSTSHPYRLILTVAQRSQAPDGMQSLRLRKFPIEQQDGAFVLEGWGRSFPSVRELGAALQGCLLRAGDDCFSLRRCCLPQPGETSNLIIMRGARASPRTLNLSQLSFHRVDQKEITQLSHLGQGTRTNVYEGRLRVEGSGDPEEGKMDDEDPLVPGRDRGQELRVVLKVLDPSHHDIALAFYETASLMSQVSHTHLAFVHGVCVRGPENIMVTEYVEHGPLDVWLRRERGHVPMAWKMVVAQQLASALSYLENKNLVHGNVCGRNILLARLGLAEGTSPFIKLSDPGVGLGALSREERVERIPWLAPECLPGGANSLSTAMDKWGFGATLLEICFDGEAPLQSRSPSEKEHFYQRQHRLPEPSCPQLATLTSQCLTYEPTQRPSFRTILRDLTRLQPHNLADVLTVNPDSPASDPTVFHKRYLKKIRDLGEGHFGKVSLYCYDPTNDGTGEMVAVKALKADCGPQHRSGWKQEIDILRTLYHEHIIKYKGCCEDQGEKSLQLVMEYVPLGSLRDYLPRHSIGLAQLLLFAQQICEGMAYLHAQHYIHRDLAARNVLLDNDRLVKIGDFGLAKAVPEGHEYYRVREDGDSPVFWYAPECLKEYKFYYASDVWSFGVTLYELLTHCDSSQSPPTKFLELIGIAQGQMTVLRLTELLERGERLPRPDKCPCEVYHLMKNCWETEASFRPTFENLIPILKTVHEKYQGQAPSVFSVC
T5 sequence (Q13422 whole entry): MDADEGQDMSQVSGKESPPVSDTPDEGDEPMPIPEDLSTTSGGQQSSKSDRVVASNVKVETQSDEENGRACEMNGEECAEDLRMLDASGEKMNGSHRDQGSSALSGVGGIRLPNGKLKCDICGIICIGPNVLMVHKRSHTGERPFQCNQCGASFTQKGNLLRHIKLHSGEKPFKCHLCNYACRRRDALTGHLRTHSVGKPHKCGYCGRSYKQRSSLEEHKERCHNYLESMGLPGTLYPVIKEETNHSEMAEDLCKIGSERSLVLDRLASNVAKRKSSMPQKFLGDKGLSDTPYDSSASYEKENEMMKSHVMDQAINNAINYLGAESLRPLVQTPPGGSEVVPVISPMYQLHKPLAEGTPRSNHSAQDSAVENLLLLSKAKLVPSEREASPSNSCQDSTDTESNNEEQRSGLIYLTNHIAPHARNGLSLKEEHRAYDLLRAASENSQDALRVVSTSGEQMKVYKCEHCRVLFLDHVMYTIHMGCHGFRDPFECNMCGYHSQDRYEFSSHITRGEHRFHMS
T3 sequence (P23458 whole entry): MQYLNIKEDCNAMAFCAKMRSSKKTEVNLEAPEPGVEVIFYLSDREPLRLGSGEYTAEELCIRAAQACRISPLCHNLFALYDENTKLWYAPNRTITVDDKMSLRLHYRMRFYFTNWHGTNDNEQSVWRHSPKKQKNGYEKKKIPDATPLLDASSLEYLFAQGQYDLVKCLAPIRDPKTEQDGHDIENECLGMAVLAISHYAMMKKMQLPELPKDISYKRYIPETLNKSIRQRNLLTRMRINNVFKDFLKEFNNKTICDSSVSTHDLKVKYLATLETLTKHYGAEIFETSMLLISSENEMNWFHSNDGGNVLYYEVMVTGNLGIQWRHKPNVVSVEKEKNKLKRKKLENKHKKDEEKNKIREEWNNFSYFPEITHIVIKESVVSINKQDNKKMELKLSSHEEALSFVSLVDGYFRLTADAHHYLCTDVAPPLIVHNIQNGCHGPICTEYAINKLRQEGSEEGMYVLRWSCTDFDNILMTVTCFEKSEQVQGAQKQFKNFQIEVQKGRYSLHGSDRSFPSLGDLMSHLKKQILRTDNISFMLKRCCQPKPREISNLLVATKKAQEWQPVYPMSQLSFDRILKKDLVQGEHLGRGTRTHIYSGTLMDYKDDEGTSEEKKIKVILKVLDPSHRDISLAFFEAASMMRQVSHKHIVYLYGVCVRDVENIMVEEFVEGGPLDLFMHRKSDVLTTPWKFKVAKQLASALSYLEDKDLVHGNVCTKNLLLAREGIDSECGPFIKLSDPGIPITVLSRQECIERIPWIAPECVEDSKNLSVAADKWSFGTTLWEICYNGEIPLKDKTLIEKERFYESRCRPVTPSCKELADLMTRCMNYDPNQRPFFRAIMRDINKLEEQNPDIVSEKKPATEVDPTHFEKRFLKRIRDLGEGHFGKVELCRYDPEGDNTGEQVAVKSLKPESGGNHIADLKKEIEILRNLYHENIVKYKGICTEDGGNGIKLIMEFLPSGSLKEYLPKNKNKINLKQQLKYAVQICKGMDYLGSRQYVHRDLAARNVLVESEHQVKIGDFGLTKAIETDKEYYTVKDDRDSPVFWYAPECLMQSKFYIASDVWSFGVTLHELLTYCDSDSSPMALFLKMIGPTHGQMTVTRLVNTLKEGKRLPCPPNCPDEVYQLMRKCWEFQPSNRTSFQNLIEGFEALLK
T1 sequence (P15170 whole entry): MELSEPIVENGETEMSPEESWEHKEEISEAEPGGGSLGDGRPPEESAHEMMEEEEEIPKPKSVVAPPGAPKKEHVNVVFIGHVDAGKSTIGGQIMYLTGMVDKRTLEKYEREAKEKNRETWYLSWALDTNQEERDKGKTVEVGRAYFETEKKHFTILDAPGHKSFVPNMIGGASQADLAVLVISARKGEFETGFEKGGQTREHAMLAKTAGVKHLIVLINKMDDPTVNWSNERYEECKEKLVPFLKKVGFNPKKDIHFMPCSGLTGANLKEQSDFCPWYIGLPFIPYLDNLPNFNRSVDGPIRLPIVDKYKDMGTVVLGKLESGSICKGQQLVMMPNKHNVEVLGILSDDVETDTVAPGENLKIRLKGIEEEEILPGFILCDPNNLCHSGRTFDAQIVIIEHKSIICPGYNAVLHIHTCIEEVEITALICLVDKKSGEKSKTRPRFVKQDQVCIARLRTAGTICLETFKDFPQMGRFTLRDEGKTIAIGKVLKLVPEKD

SMILES	remaining activity at 0.1 µM [1]	Target Protein Degradation (% remaining at 100 nM, 24 h) TYK2 [2]	Target Protein Degradation (% remaining at 100 nM, 24 h) JAK1 [3]	remaining activity at 0.1 µM [4]	Neosubstrate Degradation (% remaining at 100 nM, 24 h) IKZF1 [6]	EC50 [5]	Target Protein Degradation (% remaining at 100 nM, 24 h) JAK2 [7]	AUC [5]
CCS(=O)(=O)N1CC(CC#N)(n2cc(-c3nc(Nc4ccc(C(=O)NCCNC(=O)COc5ccc(C6CCC(=O)NC6=O)cc5)cc4)nc4[nH]ccc34)cn2)C1 (stereo not shown) [Compound 17]	110%	88 % remaining	105 % remaining	102%	96 % remaining	> 784 nM	120 % remaining	
CCS(=O)(=O)N1CC(CC#N)(n2cc(-c3nc(Nc4ccc(C(=O)NCCCCOc5ccc(C6CCC(=O)N(C)C6=O)cc5)cc4)nc4[nH]ccc34)cn2)C1 (stereo not shown) [Compound 47, 4-((4-(1-(3-(cyanomethyl)-1-(ethylsulfonyl)azetidin-3-yl)-1H-pyrazol-4-yl)-7H-pyrrolo[2,3-d]pyrimidin-2-yl)amino)-N-(4-(4-(1-methyl-2,6-dioxopiperidin-3-yl)phenoxy)butyl)benzamide]	86%	89 % remaining	114 % remaining	101%		3.35 nM	128 % remaining	
CCS(=O)(=O)N1CC(CC#N)(n2cc(-c3nc(Nc4ccc(C(=O)NCCCNC(=O)COc5ccc(C6CCC(=O)NC6=O)cc5)cc4)nc4[nH]ccc34)cn2)C1 (stereo not shown) [Compound 18]	117%	122 % remaining	83 % remaining	80%	105 % remaining	> 812 nM	82 % remaining	95

Second part, led by results:

remaining activity at 0.1 µM [1]	Target Protein Degradation (% remaining at 100 nM, 24 h) TYK2 [2]	Target Protein Degradation (% remaining at 100 nM, 24 h) JAK1 [3]	remaining activity at 0.1 µM [4]	Neosubstrate Degradation (% remaining at 100 nM, 24 h) IKZF1 [6]	SMILES	EC50 [5]	Target Protein Degradation (% remaining at 100 nM, 24 h) JAK2 [7]	AUC [5]
109%	118 % remaining	86 % remaining	46%	87 % remaining	CCS(=O)(=O)N1CC(CC#N)(n2cc(-c3nc(Nc4ccc(C(=O)NCCCN5CCN(c6ccc(C7CCC(=O)NC7=O)cc6)CC5)cc4)nc4[nH]ccc34)cn2)C1 (stereo not shown) [Compound 10]	2580 nM	25 % remaining	114
71%	142 % remaining	124 % remaining	65%	79 % remaining	CCS(=O)(=O)N1CC(CC#N)(n2cc(-c3nc(Nc4ccc(C(=O)NCCCCOc5ccc(C6CCC(=O)NC6=O)cc5)cc4)nc4[nH]ccc34)cn2)C1 (stereo not shown) [Compound 5]	2.2 nM	22 % remaining	124
	121 % remaining	120 % remaining	58%		CCS(=O)(=O)N1CC(CC#N)(n2cc(-c3nc(Nc4ccc(C(=O)NCCN5CCN(c6ccc(C7CCC(=O)NC7=O)cc6)CC5)cc4)nc4[nH]ccc34)cn2)C1 (stereo not shown) [Compound 37, 4-((4-(1-(3-(cyanomethyl)-1-(ethylsulfonyl)azetidin-3-yl)-1H-pyrazol-4-yl)-7H-pyrrolo[2,3-d]pyrimidin-2-yl)amino)-N-(2-(4-(4-(2,6-dioxopiperidin-3-yl)phenyl)piperazin-1-yl)ethyl)benzamide]	2.7 nM	26 % remaining	149
